Source: patent US20260167637A1, “NLRP3 INFLAMMASOME INHIBITOR AND USE THEREOF” (TransThera Sciences (Nanjing), Inc., priority 2022, published 2026)
Like-named read-outs stand apart in the source and are kept apart here.

What was measured:
[1] = molecular target: T1, THP-1 cell NLRP3 (Homo sapiens, UniProt Q96P20); assay: Inhibitory activity against cell NLRP3 inflammasomes in THP-1 cells (LPS + nigericin, ELISA of supernatant); format: cell-based; conditions: PMA-differentiated THP-1 cells, LPS 500 ng/mL 3 h, compound 1 h, nigericin 30 min; human IL-10 (so in the source) in supernatant by ELISA
T1 construct: endogenous in cells; host or cells: THP-1 cells, PMA-differentiated, stimulated with LPS and nigericin
Protocol: Experimental Example 1: Assay for Inhibitory Activity of Compounds Disclosed Herein Against Cell NLRP3 Inflammasomes
Test substances: The compounds of the present disclosure, prepared according to the methods described in the examples.
THP-1 is an immortalized human […] cell line.
Instrument: microplate reader (made by PE)
Assay Method: 1. THP-1 cells were cultured in 1640 complete medium (500 mL of 1640+56 mL of FBS+560 μL of 1000×P/S+2 μL of mercaptoethanol), and cells at passages 3-20 were used.
2. Culture plate coating: 100 μL of polylysine solution was added to a 96-well cell culture plate. After 30 min of incubation at 37° C., the solution was discarded, and the plate was washed with PBS twice for later use.
3. Induction of THP-1 differentiation: THP-1 cells were resuspended in an appropriate amount of complete medium containing 10 ng/mL PMA to form a cell suspension with a density of 5×10^5 cells/mL. The suspension was added to the 96-well plate at 100 μL/well, and the plate was incubated overnight in a 37° C. carbon dioxide cell incubator for 16 h.
4. Stimulation of THP-1: • a. Serum-free THP-1 culture medium containing LPS was added, with the final concentration being 500 ng/mL. The plate was incubated in a 37° C. carbon dioxide cell incubator for 3 h. • b. Mother liquors of the compounds to be tested with gradient concentrations were prepared with DMSO, added to the cells, and well mixed. Dilution was finally performed in a 1:1000 ratio. The plate was incubated in a 37° C. carbon dioxide cell incubator for 1 h. • c. Nigericin was added to each well, with the final concentration being […]. The plate was incubated in a carbon dioxide cell incubator at 37° C. for 30 min. • d. The medium in the wells was transferred to a new culture plate, and after 5 min of centrifugation at 3000 rpm, the supernatant was transferred to a new 96-well plate. • e. The content of human […] in the collected cell culture supernatant samples was determined with a commercial ELISA kit by following the instructions.

[2] = Stability in canine liver microsomes; format: in vitro ADME; conditions: canine liver microsomes 0.5 mg protein/mL, 1 μM test substance, β-NADPH 1 mM, 37° C.; for microsomal CLint at 1 μM / half-life at 1 μM: dog; for half-life at 1 μM: read-out: Canine t1/2
Protocol: (§1) Experimental Example 2: Evaluation of Stability of Compounds Disclosed Herein in Liver Microsomes
(§2) Composition of experimental incubation system:
(§3) An appropriate amount of the compound was precisely weighed out and dissolved in DMSO to prepare a 10.0 mM stock solution. The 10.0 mM stock solution was diluted with DMSO to 1.0 mM, and then diluted with phosphate buffer (containing 3 mM MgCl2) to prepare a 10 μM test substance working solution for later use (DMSO content in the reaction system: 0.1%).
(§4) An appropriate amount of β-NADPH was precisely weighed out and then prepared into a 5 mM β-NADPH working solution using phosphate buffer (containing 3 mM MgCl2) for later use.
(§5) (1) The liver microsomes (20 mg protein/mL) were taken out from a −80° C. freezer and pre-incubated on a 37° C. water bath thermostatic oscillator for 3 min to thaw for later use.
(§6) (2) A mixed solution of the incubation system (without β-NADPH) was prepared according to “composition of experimental incubation system” described above, and pre-incubated on a 37° C. water bath thermostatic oscillator for 2 min.
(§7) (3) Control group (without β-NADPH): 10 μL of phosphate buffer (containing 3 mM MgCl2) and 40 μL of the mixed solution of the incubation system in step (2) were taken and mixed, and the mixture was vortexed for 30 s and mixed well, resulting in a total reaction volume of 50 μL; the sample was duplicated. The mixture was placed on a 37° C. water bath thermostatic oscillator for incubation, and timing was started, with termination time points set at 0 min and 60 min.
(§8) (4) Sample group: 10 μL of the β-NADPH solution (5 mM) and 40 μL of the mixed solution in step (2) were taken and mixed, resulting in a total reaction volume of 50 μL; the mixture was vortexed for 30 s and mixed well; the sample was duplicated. The mixture was placed on a 37° C. water bath thermostatic oscillator for incubation, and timing was started, with termination time points set at 0 min, 5 min, 10 min, 20 min, 30 min, and 60 min.
(§9) (5) The mixture was vortexed for 5 min and then centrifuged at 4000 rpm for 10 min.
(§10) (6) 50 μL of the supernatant was taken and added to 150 μL of water, and the resulting mixture was vortexed and mixed well before LC/MS/MS analysis.
(§11) The half-life (t1/2) and clearance rate (CL) were calculated using the following first-order kinetic formula
(§12) Notes: k denotes the slope of the logarithm of the remaining amount of a compound vs. time, and Vd denotes apparent volume of distribution.

[3] = Stability in rat liver microsomes; format: in vitro ADME; conditions: rat liver microsomes 0.5 mg protein/mL, 1 μM test substance, β-NADPH 1 mM, 37° C.; for half-life at 1 μM: read-out: Rat t1/2
Protocol: as §1, §2, §3, §4, §5, §6, §7, §8, §9, §10, §11, §12

[4] = Pharmacokinetic study in mice; format: in vivo, female C57BL/6J mice; conditions: female, C57BL/6J, mouse, plasma; for clearance: read-out: Cl—obs iv (clearance rate) (converted); for Vd: read-out: Vss iv (distribution volume); for bioavailability: po 10 mg/kg vs iv 5 mg/kg, read-out: F% (absolute bioavailability); for Tmax: median, read-out: Tmax po (time to peak plasma concentration); for Cmax: read-out: Cmax po (peak concentration)
Protocol: (§13) The compounds were prepared into solutions using a mixed vehicle composed of 5% dimethyl sulfoxide, 20% (30% solutol), and 75% normal saline. The compound solutions were intragastrically administered to female C57BL/6J mice at a dose of 10 mg/kg, and the blood collection time points were: 15 min, 30 min, 1 h, 2 h, 4 h, 6 h, 8 h, and 24 h.
as §13, with “intravenously injected into” for “intragastrically administered to”, “5” for “10”, “were: 5 min,” for “were:”
The samples to be tested were taken out from a −80° C. freezer, naturally thawed at room temperature, and then vortexed for 5 min.
Plasma samples of 10 μL from different individuals were accurately pipetted into 1.5 mL centrifuge tubes.
900 μL of a 100 ng/mL internal standard working solution (a solution of tolbutamide in acetonitrile) was added, and the mixture was well mixed.
After 5 min of vortexing, centrifugation was performed at 12,000 rpm for 5 min.
50 μL of the supernatant was accurately pipetted into a 96-well plate to which water was added in advance at 150 μL/well.
After 5 min of vortexing, LC-MS/MS analysis was performed.
The results of the test substance concentrations were output by Analyst 1.6.3 of AB Sciex.
Parameters such as mean, standard deviation, and coefficient of variation (excluding those output directly by Analyst 1.6.3) were calculated using Microsoft Excel. PK parameters were calculated using WinNonlin Phenoix 8.2 software NCA (Tmax was a median).

[5] = iv 5 mg/kg, read-out: AUClast iv (0-24 h)
[6] = iv 5 mg/kg, read-out: tz1/2 iv (terminal half-life) (converted)
[7] = po 10 mg/kg, read-out: AUClast po (0-24 h)
[8] = po 10 mg/kg, read-out: tz1/2 po (terminal half-life) (converted)

T1 sequence (Q96P20 whole entry): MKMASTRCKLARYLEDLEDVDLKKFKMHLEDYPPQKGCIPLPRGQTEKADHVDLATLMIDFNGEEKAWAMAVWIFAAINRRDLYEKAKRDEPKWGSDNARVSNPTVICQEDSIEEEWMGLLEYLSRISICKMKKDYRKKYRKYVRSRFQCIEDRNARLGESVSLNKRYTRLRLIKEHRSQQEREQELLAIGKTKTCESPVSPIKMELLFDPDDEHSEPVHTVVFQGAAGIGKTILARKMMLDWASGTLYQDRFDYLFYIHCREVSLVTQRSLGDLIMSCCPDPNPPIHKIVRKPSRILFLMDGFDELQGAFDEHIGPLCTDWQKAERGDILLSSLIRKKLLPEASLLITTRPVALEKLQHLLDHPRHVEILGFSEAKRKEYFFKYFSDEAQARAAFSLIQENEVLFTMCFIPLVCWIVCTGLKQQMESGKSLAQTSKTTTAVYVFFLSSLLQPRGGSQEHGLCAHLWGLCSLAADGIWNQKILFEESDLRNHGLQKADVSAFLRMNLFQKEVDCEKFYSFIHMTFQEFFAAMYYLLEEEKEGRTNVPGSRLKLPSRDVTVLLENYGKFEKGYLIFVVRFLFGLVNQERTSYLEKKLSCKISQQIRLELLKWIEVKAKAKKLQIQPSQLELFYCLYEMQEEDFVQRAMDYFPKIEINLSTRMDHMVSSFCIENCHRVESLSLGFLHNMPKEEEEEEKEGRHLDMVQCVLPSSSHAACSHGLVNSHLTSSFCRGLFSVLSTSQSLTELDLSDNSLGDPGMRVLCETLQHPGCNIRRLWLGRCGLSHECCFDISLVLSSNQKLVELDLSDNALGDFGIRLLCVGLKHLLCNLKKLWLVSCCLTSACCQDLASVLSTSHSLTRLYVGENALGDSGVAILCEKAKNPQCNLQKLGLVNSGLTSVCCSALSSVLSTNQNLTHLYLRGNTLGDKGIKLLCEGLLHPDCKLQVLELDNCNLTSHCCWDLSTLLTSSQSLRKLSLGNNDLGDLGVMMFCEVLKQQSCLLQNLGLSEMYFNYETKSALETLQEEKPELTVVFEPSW

Row | IC50 [1] [nM] | Canine t1/2 [2] | microsomal CLint at 1 μM [3] [µL/min/mg] | half-life at 1 μM [3] [h] | AUC(0-t) [4, 5] [ng·h/mL] | clearance ([4]; iv 5 mg/kg) [mL/min/kg] | Vd ([4]; iv 5 mg/kg) [L/kg] | half-life [4, 6] [h] | bioavailability [4] [%] | Tmax ([4]; po 10 mg/kg) [h] | AUC(0-t) [4, 7] [ng·h/mL] | Cmax ([4]; po 10 mg/kg) [ng/mL] | half-life [4, 8] [h] | microsomal CLint at 1 μM [2] [µL/min/mg] | half-life at 1 μM [2] [h] | Rat t1/2 [3] | Compound
1 | 5.2 | →∞ | 6.2 | 3.73 | 6830 | 11.8 | 2.39 | 9.55 | 77.7 | 0.25 | 10900 | 5520 | 3.99 |  |  |  | CC#Cc1ccc(-c2nnc(N[C@@H]3CCCN(C)C3)c(=O)n2C)c(O)c1 [Compound 27, (R)-3-(2-hydroxy-4-(prop-1-yn-1-yl)phenyl)-4-methyl-6-((1-methylpiperidin-3-yl)amino)-1,2,4-triazin-5(4H)-one]
2 | 0.2 |  | 4 | 5.78 | 5590 | 14.8 | 3.02 | 3.81 | 92.7 | 0.5 | 10400 | 1910 | 3.1 | 4 | 5.78 |  | [2H]C([2H])([2H])N1CCC[C@@H](Nc2cc(C)c(-c3ccc(C#C)cc3O)nn2)C1 [Compound 84, (R)-5-ethynyl-2-(4-methyl-6-((1-(methyl-d3)piperidin-3-yl)amino)pyridazin-3-yl)phenol]
3 | 0.6 |  | 4.6 | 5.02 | 15100 | 5.32 | 1.85 | 5.55 | 94.4 | 1 | 29100 | 3540 | 4.26 | 5.2 | 4.45 |  | [2H]C([2H])([2H])N1CCC[C@@H](Nc2cc(C3CC3)c(-c3ccc(C#C)cc3O)nn2)C1 [Compound 85, (R)-2-(4-cyclopropyl-6-((1-(methyl-d3)piperidin-3-yl)amino)pyridazin-3-yl)-5-ethynylphenol]
4 | 0.2 |  | 8 | 2.88 |  |  |  |  |  |  |  |  |  | 6.2 | 3.73 |  | C#Cc1ccc(-c2nnc(N[C@@H]3CCCN(CC)C3)cc2C)c(O)c1 [Compound 89, (R)-2-(6-((1-ethylpiperidin-3-yl)amino)-4-methylpyridazin-3-yl)-5-ethynylphenol]
5 | 1.4 |  | 5.6 | 4.13 |  |  |  |  |  |  |  |  |  | 5 | 4.62 |  | C#Cc1ccc(-c2nnc(N[C@@H]3CCCN(CC)C3)c(=O)n2C)c(O)c1 [Compound 93, (R)-6-((1-ethylpiperidin-3-yl)amino)-3-(4-ethynyl-2-hydroxyphenyl)-4-methyl-1,2,4-triazin-5(4H)-one]
6 | 0.7 |  | 3.2 | 7.22 |  |  |  |  |  |  |  |  |  | 6.6 | 3.5 |  | C#Cc1ccc(-c2nnc(N[C@@H]3CCCN(CCO)C3)nc2C)c(O)c1 [Compound 99, (R)-5-ethynyl-2-(3-((1-(2-hydroxyethyl)piperidin-3-yl)amino)-5-methyl-1,2,4-triazin-6-yl)phenol]
7 | 1.3 |  | 0.4 | 57.8 |  |  |  |  |  |  |  |  |  | 1 | 23.1 |  | C#Cc1ccc(-c2nnc(N[C@@H]3CCCN(C)C3)cc2C(F)(F)F)c(O)c1 [Compound 114, (R)-5-Ethynyl-2-(4-trifluoromethyl-6-((1-methylpiperidin-3-yl)amino)pyridazin-3-yl)phenol]
8 | 0.3 |  | 20.2 | 1.14 |  |  |  |  |  |  |  |  |  | 3.6 | 6.42 |  | C#Cc1ccc(-c2nnc(N[C@@H]3CCCN(C)C3)cc2C(F)F)c(O)c1 [Compound 115, (R)-2-(4-Difluoromethyl-6-((1-methylpiperidin-3-yl)amino)pyridazin-3-yl)-5-ethynylphenol]
9 | 0.5 | →∞ |  |  |  |  |  |  |  |  |  |  |  |  |  | →∞ | C#Cc1ccc(-c2nnc(N[C@@H]3CCCNC3)cc2C2CC2)c(O)c1 [Compound 149, (R)-2-(4-cyclopropyl-6-(piperidin-3-ylamino)pyridazin-3-yl)-5-ethynylphenol]
